# Data as given in patent US5348956A, “Substituted cyclopropylamino-1,3,5-triazines” (UCB S.A., priority 1991, dated 1994).
# What was measured:
# [1] = tested on: amnesia induced by scopolamine; assay: multiple-trial passive avoidance: mnemic retention, amnesia induced by scopolamine
# Procedure: To this end, the method of multiple-trial passive avoidance has been used. […] The test is carried out on male Sprague-Dawley rats (160-200 g). which are kept in standard cages throughout the experiment. The apparatus used is a transparent square cage with 35 cm sides and 25 cm high, fitted with a grid floor which can be electrified. A rubber insulating mat (10×17 cm) is placed on the floor in one of the corners of the cage.
# Each animal is subjected to four tests at times 0, 4, 24 and 28 hours. In the first test (time 0), the animal is placed on the rubber mat and the time which it takes to decide to leave this position to explore the cage is recorded. After 20 seconds of exploration, the rat receives an electric shock (3 seconds duration) in the paws, causing an escape reaction. The rat is immediately removed from the apparatus and replaced in its original cage. In the course of the three subsequent tests (times: 4, 24 and 28 hours), the animal is replaced on the rubber mat and the time taken to leave this position is recorded. As soon as the four paws of the animal rest on the grid, it receives an electric shock and is removed immediately from the apparatus.
# At the start of the experiment, the rats are divided into 4 homogeneous groups of 15 animals. Thirty minutes before each test, each group of animals is subjected to a predetermined treatment:
# Groups 1 and 2 are used in the first experiment (learning) and groups 3 and 4 in the second experiment (mnemic retention).
# The differences found are analyzed statistically by the Mann-Whitney method.
# cAMP in PMN granulocytes = assay: increase in the level of cAMP in PMN granulocytes; type: cell-based, Rat; settings: […]10^-6 mole per liter; PGE1 10^-6 mole/liter; control 4.3
# Text: Polymorphonuclear neutrophil granulocytes (PMN) are cells which are mobilized during inflammatory phenomena and which can be stimulated by various compounds, such as, for example, formylmethionyl-leucylphenylalanine (FMLP) or prostaglandins E (PGE1). The PMN granulocytes respond to these extracellular stimuli with an activation of the oxygen metabolism with release of toxic oxygenated metabolites. An excessive response of the PMN granulocytes may be the cause of a painful inflammation and is also accompanied by a reduction in the level of cyclic adenosine monophosphate (cAMP) in these granulocytes. […] The reaction is then stopped by addition of 1 ml of propanol. After centrifugation at 15,000 g for 3 minutes, the supernatant is recovered and evaporated and the amount of cAMP in the residue is determined by radioimmunological assay according to the process recommended by the supplier of the reagent used for this purpose (Amersham). A control test is carried out under the same conditions, but in the absence of the compound to be tested.
# [2] = multiple-trial passive avoidance: learning; type: in vivo, male Sprague-Dawley rats
# Procedure: To evaluate whether a compound can promote learning, the following test is carried out. […] Rats which remain on the mat for this period have acquired the avoidance reflex and are replaced in their original cage without receiving the electric shock. […] The results obtained in the test used to evaluate learning are given in columns 3 and 4. […] The results were analyzed by the Student test.
# serotonergic activity = assay: "wet dog shake" (WDS) behavior, serotonergic activity; type: in vivo, male Sprague-Dawley rats; settings: counted over 30 minutes
# Procedure: A decrease in serotonergic activity has been correlated with the occurrence of affective disorders, such as depression and anxiety. […] The test is carried out in the morning on male Sprague-Dawley rats (±180 g), divided the previous day into groups of 8 animals in residence cages. The cage used for the tests is a transparent enclosure of 12×24×30 cm in height, the floor of which is covered with a layer of sand. The compounds to be tested, dissolved either in physiological salt solution or in a citrate buffer of pH 5, are administered intraperitoneally in a different dose for each group treated. The control groups receive an intraperitoneal injection of the same vehicle (either physiological salt solution or citrate buffer). […] The mean values of the results are calculated and analyzed statistically by the Mann-Whitney method. The mean values of the number of shakes obtained for the compounds according to the invention administered intraperitoneally at the doses indicated (in mg/kg) are given in Table V below.
# [3] = tested on: anaphylactic release of histamine, guinea-pig lung sections; assay: potentiation of the inhibition of anaphylactic histamine release by isoprenaline; type: cell-based, Dunkin-Hartley guinea-pigs; settings: with isoprenaline 10^-7 mole per liter
# Procedure: Dunkin-Hartley guinea-pigs which are first passively sensitized by an intravenous injection of 1 ml of isologous antiovalbumin serum are used. Twenty-four hours after the injection, the lungs are then perfused with a Tyrode buffer to evacuate the blood, and then removed and cut into sections of 1 mm. These sections are divided up into test tubes (3 sections per tube) to give 10 experimental groups of lung sections per guinea-pig. A "positive" control group of lung sections is stimulated by addition of an ovalbumin solution (0.1 mg/ml) to induce the anaphylactic release of histamine and serves to determine the maximum amount of histamine (100%) which can be released. A "negative" control group which is not stimulated by ovalbumin serves to determine the naturally released amount of histamine (spontaneous release). In three other groups, the lung sections are incubated at 37° C. for 30 minutes in the ovalbumin solution in the presence of three different doses of the compound to be tested (one dose per group). […] At this dose, isoprenaline inhibits the release of histamine by 30 to 40%, which is verified on a control group treated only with isoprenaline alone at this dose. In addition, a supplementary control group which is not stimulated by ovalbumin is used to detect a possible spontaneous release of histamine by the highest dose of the compound tested. In each group, the histamine released in the incubation medium is measured by spectrofluorometry (D. P. EVANS et al., Life Sci., 12, (1973), 327-336).
# [4] = tested on: longitudinal muscles of the ileum contracted by histamine; assay: potentiation of the myorelaxing effect of isoprenaline on the ileum; type: cell-based, Dunkin-Hartley guinea-pigs; settings: with isoprenaline 10^-7 mole/l; histamine 3.2 μmoles/l
# Procedure: (cf. R. A. TURNER, "Screening Methods in Pharmacology", Ed. Acad. Press, San Diego, 1965, chapter IV, pages 43-47). […] Inhibition cycle: When the successive contractions induced by the histamine injections have become reproducible, the compound to be tested is injected immediately after the second wash. The contraction induced by the following injection of histamine is measured and compared with the average of the three preceding contractions caused by the repeated injections of histamine (control contractions). From the result obtained, the percentage inhibition of the contraction is calculated. Several cycles of histamine injection are then performed again, until the contractions of the muscle become reproducible again; the muscle is then ready for testing of another compound. The potentiating effect of a compound is measured in the course of a so-called "potentiation" cycle, which comprises three successive inhibition cycles. […] In the course of the second inhibition cycle, the percentage inhibition of the contraction obtained with the compound to be tested, injected alone at a given dose, is determined. In the third inhibition cycle, isoprenaline and the compound to be tested are injected simultaneously, and the percentage inhibition of the contraction is calculated for the dose used of the compound tested. The same experiments are repeated for each of the doses of the compounds tested.
# [5] = 4 hours, 1.0 mg/kg i.p. + 0.5 mg scopolamine
# [6] = 24 hours, 1.0 mg/kg i.p. + 0.5 mg scopolamine
# [7] = 28 hours, 1.0 mg/kg i.p. + 0.5 mg scopolamine
# [8] = time 0, 1.0 mg/kg i.p. + 0.5 mg scopolamine
Compound,Amount of cAMP produced (cAMP in PMN granulocytes) [picomoles per 10^7 cells],Average number of shakes (serotonergic activity; 1.0 mg/kg i.p.) [shakes],Minimum potentiating dose (MPD) [3] [µmol/L],Minimum potentiating dose (MPD) [4] [µmol/L],"Period of remaining on the mat, group 4 [1, 5] [s]","Period of remaining on the mat, group 4 [1, 6] [s]","Period of remaining on the mat, group 4 [1, 7] [s]","Period of remaining on the mat, group 4 [1, 8] [s]","Learning, average number of trials, group 2 ([2]; 1.0 mg/kg i.p.) [trials]",other results
"CCCc1nc(NC2CC2)nc(N2CCOCC2)n1 [Compound 1, 2-Cyclopropylamino-4-morpholino-6-n-propyl-1,3,5-triazine]",21.0,7.8 ± 1.6,0.32,0.032,–,–,–,–,–,"Period of remaining on the mat, group 4 ([1]; 4 hours, 3.0 mg/kg i.p. + 0.5 mg scopolamine): 42.8 s; Period of remaining on the mat, group 4 ([1]; 24 hours, 3.0 mg/kg i.p. + 0.5 mg scopolamine): 77.2 s; Period of remaining on the mat, group 4 ([1]; 28 hours, 3.0 mg/kg i.p. + 0.5 mg scopolamine): 114.6 s; Period of remaining on the mat, group 4 ([1]; time 0, 3.0 mg/kg i.p. + 0.5 mg scopolamine): 19.2 s; Learning, average number of trials, group 2 ([2]; 3.0 mg/kg i.p.): 1.4 trials"
CCc1nc(NC2CC2)nc(N2CCOCC2)n1 [Compound 2],–,10.0 ± 3.5,3.2,1.0,18.9,24.3,36.5,7.9,2.7,–
"C1CN(c2nc(NC3CC3)nc(C3CC3)n2)CCO1.Cl [Compound 3, 2-cyclopropyl-4-cyclopropylamino-6-morpholino-1,3,5-triazine hydrochloride]",23.2,11.9 ± 2.7,0.32,0.032,35.5,105.0,121.0,6.5,1.9,Average number of shakes (serotonergic activity; 0.3 mg/kg i.p.): 5.1 ± 1.0 shakes
"C1CC(c2nc(NC3CC3)nc(N3CCOCC3)n2)C1 [Compound 4, 2-cyclobutyl-4-cyclopropylamino-6-morpholino-1,3,5-triazine]",17.7,–,0.1,0.032,–,–,–,–,–,"Period of remaining on the mat, group 4 ([1]; 4 hours, 2.8 mg/kg i.p. + 0.5 mg scopolamine): 44.5 s; Period of remaining on the mat, group 4 ([1]; 24 hours, 2.8 mg/kg i.p. + 0.5 mg scopolamine): 91.5 s; Period of remaining on the mat, group 4 ([1]; 28 hours, 2.8 mg/kg i.p. + 0.5 mg scopolamine): 106.6 s; Period of remaining on the mat, group 4 ([1]; time 0, 2.8 mg/kg i.p. + 0.5 mg scopolamine): 12.3 s; Learning, average number of trials, group 2 ([2]; 2.8 mg/kg i.p.): 1.9 trials; Average number of shakes (serotonergic activity; 2.8 mg/kg i.p.): 10.6 ± 4.3 shakes"
CCCc1nc(NC2CC2)nc(N(CCO)CCO)n1 [Compound 6],14.6,1.9 ± 0.5,1.0,1.0,–,–,–,–,–,"Period of remaining on the mat, group 4 ([1]; 4 hours, […] i.p. + 0.5 mg scopolamine): 11.7 s; Period of remaining on the mat, group 4 ([1]; 24 hours, […] i.p. + 0.5 mg scopolamine): 24.8 s; Period of remaining on the mat, group 4 ([1]; 28 hours, […] i.p. + 0.5 mg scopolamine): 28.7 s; Period of remaining on the mat, group 4 ([1]; time 0, […] i.p. + 0.5 mg scopolamine): 5.3 s"
CC(C)c1nc(NC2CC2)nc(N2CC3CCC(C2)O3)n1 [Compound 12],16.8,–,0.1,0.01,18.0,51.1,94.5,3.6,1.7,–
OC1CN(c2nc(NC3CC3)nc(C3CC3)n2)C1 [Compound 13],–,–,1.0,1.0,–,–,–,–,–,"Period of remaining on the mat, group 4 ([1]; 4 hours, 2.5 mg/kg i.p. + 0.5 mg scopolamine): 55.3 s; Period of remaining on the mat, group 4 ([1]; 24 hours, 2.5 mg/kg i.p. + 0.5 mg scopolamine): 92.5 s; Period of remaining on the mat, group 4 ([1]; 28 hours, 2.5 mg/kg i.p. + 0.5 mg scopolamine): 99.0 s; Period of remaining on the mat, group 4 ([1]; time 0, 2.5 mg/kg i.p. + 0.5 mg scopolamine): 7.7 s; Learning, average number of trials, group 2 ([2]; 2.5 mg/kg i.p.): 2.1 trials; Average number of shakes (serotonergic activity; 2.5 mg/kg i.p.): 5.6 ± 1.8 shakes"
COC1CN(c2nc(NC3CC3)nc(C3CC3)n2)C1 [Compound 14],–,–,0.32,1.0,–,–,–,–,–,"Period of remaining on the mat, group 4 ([1]; 4 hours, 2.6 mg/kg i.p. + 0.5 mg scopolamine): 36.3 s; Period of remaining on the mat, group 4 ([1]; 24 hours, 2.6 mg/kg i.p. + 0.5 mg scopolamine): 73.9 s; Period of remaining on the mat, group 4 ([1]; 28 hours, 2.6 mg/kg i.p. + 0.5 mg scopolamine): 139.1 s; Period of remaining on the mat, group 4 ([1]; time 0, 2.6 mg/kg i.p. + 0.5 mg scopolamine): 11.7 s; Learning, average number of trials, group 2 ([2]; 2.6 mg/kg i.p.): 1.5 trials; Average number of shakes (serotonergic activity; 0.8 mg/kg i.p.): 2.1 ± 0.7 shakes"
C1CC1Nc1nc(C2CC2)nc(N2CC3CCC(C2)O3)n1 [Compound 16],–,10.6 ± 1.8,0.032,0.032,–,–,–,–,–,"Period of remaining on the mat, group 4 ([1]; 4 hours, 3.25 mg/kg i.p. + 0.5 mg scopolamine): 35.1 s; Period of remaining on the mat, group 4 ([1]; 24 hours, 3.25 mg/kg i.p. + 0.5 mg scopolamine): 118.5 s; Period of remaining on the mat, group 4 ([1]; 28 hours, 3.25 mg/kg i.p. + 0.5 mg scopolamine): 101.1 s; Period of remaining on the mat, group 4 ([1]; time 0, 3.25 mg/kg i.p. + 0.5 mg scopolamine): 11.3 s; Learning, average number of trials, group 2 ([2]; 3.25 mg/kg i.p.): 2.2 trials"
